Series [1] concerns the target T1, F656A hERG (Homo sapiens, UniProt Q12809, F656A). The experiment in a line: in vitro. The note with it: HEK-293 cells transiently expressing F656A mutant hERG. A general note: hERG is a cardiac potassium channel; its block is linked to QT prolongation.
From the text: (§2) The hERG mutations were constructed by site-directed mutagenesis of WT hERG cDNA in pcDNA3.1 vector using the QuickChange Site-Directed Mutagenesis Kit (Stratagene), and the integrity of the construct was verified by DNA sequencing.
Another series addresses T2, IhERG in hiPSC-CMs (Homo sapiens, UniProt Q12809).
T2 construct: host or cells: hiPSC-CMs (iCell Cardiomyocytes)
The series can be described thus: IhERG current in hiPSC-CMs (voltage clamp). Type of series: cell-based. Details: unit not given here. As to the method: The hiPSC-CMs from human fibroblast cell lines (iCell Cardiomyocytes; Cellular Dynamics International, Madison, WI, USA) were purchased and cultured for single-cell electrophysiological recordings. Frozen vials of hiPSC-CMs were thawed in a water bath maintained at 37°C and mixed with ice-cold plating medium (iCell Cardiomyocyte Plating Medium, glucose-free). The cells were transferred to four-well culture plates containing 0.1% gelatin-coated glass coverslips and then maintained in a culture incubator at 37°C in an atmosphere of 93% air and 7% CO2. After 2 days of culture, the plating medium was replaced with culture medium (iCell Cardiomyocyte Maintenance Medium, glucose-free), which was then changed every 2 days. The hiPSC-CMs were cultured for 4 weeks and used at 7 to 28 days post-thaw for electrophysiological analysis. […] The internal solution contained (in mM) 120 K-Asp, 20 KCl, 5 NaCl, 2 CaCl2, 10 HEPES, 5 EGTA, and 5 Mg-ATP (pH 7.25). We recorded typical APs in hiPSC-CMs in the current-clamp mode. The spontaneous beating activity or paced firing of single hiPSC-CMs were recorded, and only hiPSC-CMs that could beat stably were included in the analysis. Following stabilization of the AP waveforms, the average of six recorded APs for each test concentration was analyzed.
(§1) pCLAMP (Axon Instruments, Foster City, CA, USA), Origin 8 (OriginLab Corp, Northampton, MA, USA), and Excel (Microsoft, Redmond, WA, USA) were used for data acquisition and analysis. The concentration–response relationships for drug-induced blockage were calculated using SigmaPlot (Systat Software, San Jose, CA, USA). […] Data are presented as the means ± SEM, and n represents the number of experimental replicates. Statistical significance was determined using the Student’s t-test and one-way ANOVA with post hoc testing using Dunnett’s method; p < 0.05 was considered to indicate statistical significance.

The target of the next series is INa in hiPSC-CMs (Homo sapiens, UniProt Q14524). The experiment in a line: INa current in hiPSC-CMs (voltage clamp). Type of series: cell-based. Details: INa current: unit not given here.
Sequence of INa in hiPSC-CMs (Q14524 212-1075 limits assumed): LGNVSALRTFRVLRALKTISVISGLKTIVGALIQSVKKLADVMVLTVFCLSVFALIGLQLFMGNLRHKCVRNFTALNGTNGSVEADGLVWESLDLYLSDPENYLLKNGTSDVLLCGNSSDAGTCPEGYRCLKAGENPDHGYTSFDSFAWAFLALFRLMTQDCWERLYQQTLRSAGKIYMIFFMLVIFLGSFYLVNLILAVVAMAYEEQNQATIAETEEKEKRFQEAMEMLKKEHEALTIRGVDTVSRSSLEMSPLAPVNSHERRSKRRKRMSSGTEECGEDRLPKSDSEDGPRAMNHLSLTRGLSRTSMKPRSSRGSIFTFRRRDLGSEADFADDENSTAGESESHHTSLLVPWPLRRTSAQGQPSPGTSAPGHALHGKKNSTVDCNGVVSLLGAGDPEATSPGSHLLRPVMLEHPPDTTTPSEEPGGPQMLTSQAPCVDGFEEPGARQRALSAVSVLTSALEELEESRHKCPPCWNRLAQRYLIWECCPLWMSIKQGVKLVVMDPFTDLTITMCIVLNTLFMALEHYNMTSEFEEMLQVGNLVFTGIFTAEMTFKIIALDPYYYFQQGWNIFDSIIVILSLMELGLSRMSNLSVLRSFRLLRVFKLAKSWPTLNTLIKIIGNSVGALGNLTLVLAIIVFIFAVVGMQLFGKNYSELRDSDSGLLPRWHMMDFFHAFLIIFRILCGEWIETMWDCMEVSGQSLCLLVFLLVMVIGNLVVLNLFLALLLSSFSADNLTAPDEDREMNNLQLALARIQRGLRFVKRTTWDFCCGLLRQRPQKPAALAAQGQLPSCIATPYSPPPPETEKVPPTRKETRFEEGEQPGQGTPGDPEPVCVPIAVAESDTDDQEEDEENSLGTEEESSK
Sequence of INa in hiPSC-CMs (Q14524 1131-2016 limits assumed): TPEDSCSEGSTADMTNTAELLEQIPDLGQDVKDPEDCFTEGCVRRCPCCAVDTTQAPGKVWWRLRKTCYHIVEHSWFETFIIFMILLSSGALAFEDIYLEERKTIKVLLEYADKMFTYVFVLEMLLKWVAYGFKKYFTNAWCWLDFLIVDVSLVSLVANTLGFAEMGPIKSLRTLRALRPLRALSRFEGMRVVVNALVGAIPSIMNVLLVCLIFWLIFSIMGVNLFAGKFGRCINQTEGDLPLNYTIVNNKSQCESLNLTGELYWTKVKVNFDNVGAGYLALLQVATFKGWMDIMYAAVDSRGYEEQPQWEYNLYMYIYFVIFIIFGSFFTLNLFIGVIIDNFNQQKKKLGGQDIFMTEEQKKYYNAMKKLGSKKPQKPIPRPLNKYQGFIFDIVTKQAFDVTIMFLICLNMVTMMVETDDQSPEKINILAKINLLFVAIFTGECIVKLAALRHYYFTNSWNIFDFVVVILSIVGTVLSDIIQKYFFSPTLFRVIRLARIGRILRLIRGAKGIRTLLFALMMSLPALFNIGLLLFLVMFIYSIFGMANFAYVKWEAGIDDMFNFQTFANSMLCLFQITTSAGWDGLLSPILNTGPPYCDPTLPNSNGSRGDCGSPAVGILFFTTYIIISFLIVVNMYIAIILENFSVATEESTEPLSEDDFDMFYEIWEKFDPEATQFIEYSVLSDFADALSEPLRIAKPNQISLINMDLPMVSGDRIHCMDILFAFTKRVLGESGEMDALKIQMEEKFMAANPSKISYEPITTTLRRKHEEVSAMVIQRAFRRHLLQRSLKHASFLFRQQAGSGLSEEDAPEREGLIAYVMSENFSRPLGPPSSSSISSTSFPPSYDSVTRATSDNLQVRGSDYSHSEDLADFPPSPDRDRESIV
The target in another series is T3, SCN5A (INa) (Homo sapiens, UniProt Q14524).
T3 construct: expressed in transfected cells; host or cells: HEK293
T3 sequence (Q14524 whole entry, species assumed): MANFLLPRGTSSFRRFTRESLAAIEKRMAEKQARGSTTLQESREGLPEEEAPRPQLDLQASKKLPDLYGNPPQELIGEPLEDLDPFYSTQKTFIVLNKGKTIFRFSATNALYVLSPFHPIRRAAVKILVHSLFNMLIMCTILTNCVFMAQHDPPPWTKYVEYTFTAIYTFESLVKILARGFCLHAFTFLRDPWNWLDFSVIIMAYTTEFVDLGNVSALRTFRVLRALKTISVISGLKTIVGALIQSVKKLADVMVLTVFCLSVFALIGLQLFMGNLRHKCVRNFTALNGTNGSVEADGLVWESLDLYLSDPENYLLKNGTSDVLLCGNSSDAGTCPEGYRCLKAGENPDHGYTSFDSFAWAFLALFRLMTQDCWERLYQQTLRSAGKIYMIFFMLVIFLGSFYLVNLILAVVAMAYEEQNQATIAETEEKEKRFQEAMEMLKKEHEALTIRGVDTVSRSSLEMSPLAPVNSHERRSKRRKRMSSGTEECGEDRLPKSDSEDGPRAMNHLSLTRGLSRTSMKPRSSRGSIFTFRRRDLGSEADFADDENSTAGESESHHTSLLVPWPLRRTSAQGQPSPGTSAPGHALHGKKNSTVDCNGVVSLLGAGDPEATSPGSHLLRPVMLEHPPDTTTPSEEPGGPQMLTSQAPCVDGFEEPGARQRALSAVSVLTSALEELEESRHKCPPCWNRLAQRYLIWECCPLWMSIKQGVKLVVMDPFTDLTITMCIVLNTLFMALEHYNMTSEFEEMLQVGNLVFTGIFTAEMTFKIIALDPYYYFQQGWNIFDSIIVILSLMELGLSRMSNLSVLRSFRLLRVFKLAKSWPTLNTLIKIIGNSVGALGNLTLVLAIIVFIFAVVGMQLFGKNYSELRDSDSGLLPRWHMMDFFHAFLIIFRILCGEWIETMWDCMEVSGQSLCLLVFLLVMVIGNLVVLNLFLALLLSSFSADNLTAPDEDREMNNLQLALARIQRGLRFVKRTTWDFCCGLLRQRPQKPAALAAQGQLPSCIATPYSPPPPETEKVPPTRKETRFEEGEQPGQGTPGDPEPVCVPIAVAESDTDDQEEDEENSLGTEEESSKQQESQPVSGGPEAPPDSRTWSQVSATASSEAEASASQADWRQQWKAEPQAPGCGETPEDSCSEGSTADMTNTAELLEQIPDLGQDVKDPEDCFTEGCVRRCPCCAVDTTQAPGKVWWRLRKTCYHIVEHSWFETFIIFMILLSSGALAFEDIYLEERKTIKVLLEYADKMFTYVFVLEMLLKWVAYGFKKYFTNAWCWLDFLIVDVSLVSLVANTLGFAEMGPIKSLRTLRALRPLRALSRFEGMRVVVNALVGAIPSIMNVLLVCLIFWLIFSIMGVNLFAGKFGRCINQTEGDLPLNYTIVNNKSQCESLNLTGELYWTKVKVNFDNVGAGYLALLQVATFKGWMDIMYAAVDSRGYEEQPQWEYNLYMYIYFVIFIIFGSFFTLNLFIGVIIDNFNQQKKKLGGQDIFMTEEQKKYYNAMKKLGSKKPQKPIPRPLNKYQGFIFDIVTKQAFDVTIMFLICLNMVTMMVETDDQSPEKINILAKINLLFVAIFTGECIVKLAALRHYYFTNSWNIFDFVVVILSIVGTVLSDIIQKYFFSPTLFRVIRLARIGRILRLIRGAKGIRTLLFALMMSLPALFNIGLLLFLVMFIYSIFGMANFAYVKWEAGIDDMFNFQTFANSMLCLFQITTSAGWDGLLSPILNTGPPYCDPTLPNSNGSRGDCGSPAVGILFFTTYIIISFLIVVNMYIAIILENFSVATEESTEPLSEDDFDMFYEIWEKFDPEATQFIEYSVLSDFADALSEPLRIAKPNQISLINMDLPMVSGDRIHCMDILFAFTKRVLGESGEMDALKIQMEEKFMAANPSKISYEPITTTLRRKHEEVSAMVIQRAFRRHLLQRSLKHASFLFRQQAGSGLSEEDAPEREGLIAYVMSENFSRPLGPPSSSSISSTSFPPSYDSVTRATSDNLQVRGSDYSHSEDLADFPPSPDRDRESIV
The experiment in a line: Whole-cell patch clamp, INa in SCN5A-transfected HEK293 cells. Format: cell-based. The note with it: for INa current: HEK293.
From the text: For various aspects of cardiac ion channel study, human embryonic kidney (HEK293; ATCC, Manassas, VA, USA) cells were transiently transfected using lipofectAmin2000 (Gibco BRL, New York, NY, USA) according to the manufacturer’s instructions. The hERG (human ether-ago-go-related gene corresponding to IKr), KCNQ1/KCNE1 (the gene corresponding to IKs), KCNJ2 (the gene corresponding to IK1) or SCN5A (the gene corresponding to INa) cDNA was co-transfected with green fluorescence protein, the surface marker protein, to allow assessment of the transfection efficiency. For the calcium current, enzymatically isolated single rat ventricular myocytes were used. Briefly, the hearts were rapidly excised from anaesthetized Sprague–Dawley rats (250–350 g) and perfused via the aorta on a Langendorff apparatus with an oxygenated normal Tyrode (NT) solution for 5 min. To clear the blood, then perfused with Ca^2+-free normal Tyrode solution for 3 min. Next, the heart was perfused with enzyme solution containing 0.6 mg/mL collagenase (Worthington Biomedical Corp., Lakewood, NJ, USA) for 30–40 min. Finally, this enzyme-containing solution was washed out for 5 min. with a high-K^+ and low-Cl^-) Kraft-Bruhe solution. Following the isolation procedure, the left ventricle was dissected out and agitated mechanically with a fire-polished Pasteur pipette in Kraft-Bruhe solution to obtain single myocytes. The isolated myocytes were stored at 4°C until use.
The external solution for recording the IhERG, IKs and INa channel currents was NT solution. […] Kraft-Bruhe solution for storage of the freshly isolated rat ventricular myocytes contained (in mM): 70 K-glutamate, 55 KCl, 10 HEPES, 3 MgCl2, 20 taurine, 20 KH2PO4, 0.5 ethylene glycol tetra acetic (K-EGTA) (pH 7.2 with KOH).
as §1
For hERG tail current, the cells were depolarized for 2 s to +20 mV from a holding potential of -80 mV followed by a 3 s repolarization back to -40 mV. […] For slow delayed rectifier potassium current (IKs) recording, the cells were depolarized for 3s to +60 mV from a holding potential of -80 mV, followed by a 3 s repolarization back to -40 mV (Fig 2B). […]

For series [2], the target named is T1, F656A hERG. To be noted: 3 μM, -120 mV, high K+.
From the text: as §2

The term inhibition denotes the percentage by which the read-out fell short of the control. One may read the IC50 as the point on the concentration scale where inhibition reaches its midpoint. Take `COc1cc2c(Nc3ccc(Br)cc3F)ncnc2cc1OCC1CCN(C)CC1` [Vandetanib]: the inhibition at 3 μM against F656A hERG [1] is 27.4 ± 4.8%. The IhERG current was found to be 196.0 ± 3.2 on IhERG in hiPSC-CMs (0.1 μM), 164.9 ± 9.4 at IhERG in hiPSC-CMs (0.3 μM), 92.8 ± 11.2 on IhERG in hiPSC-CMs (1 μM) and 20.4 ± 4.4 on IhERG in hiPSC-CMs (3 μM). Further, the IC50 against INa in hiPSC-CMs was found to be 2.72 µM; on SCN5A (INa) (SCN5A-encoded HEK293 cells), 36.6 µM. The INa current on INa in hiPSC-CMs (1 μM) is -4046.1 ± 53.7; on INa in hiPSC-CMs (3 μM), -2284.0 ± 79.5; on INa in hiPSC-CMs (10 μM), -1205.7 ± 89.8; on INa in hiPSC-CMs (30 μM) it was -643.2 ± 33.6; on SCN5A (INa) (10 μM) it was -948.9 ± 24.2; on SCN5A (INa) (30 μM) it was -743.0 ± 85.1. Besides, the INa current at SCN5A (INa) (100 μM) is -94.2 ± 36.8. Besides, the “F656A hERG current” value at F656A hERG [2] was -1101.9 ± 122.4.
